Patent US20120184590A1, “FORMULATIONS OF INDOLE-3-CARBINOL DERIVED ANTITUMOR AGENTS WITH INCREASED ORAL BIOAVAILABILITY” (UNIVERSITY OF KANSAS, priority 2009, published 2012)
Where “and” joins values, the source holds several entries; their conditions need not be identical. Equal values may be shown once. Read-outs that look alike come from different tables or passages of the source. Marks after values point to notes of the source that are not given here.

Experiment: Pharmacokinetics of SR13668 in dogs after i.v. and oral gavage dosing
Format: in vivo, beagle dogs
Settings: for Fabs F/(1-ER): blood; for bioavailability: beagle (dogs), across all oral groups, dogs and monkeys; for Vd/F: read-out: VZ/F
From the text: Four non-naïve male beagle dogs (approximately 3 years of age; Ridglan Farms Inc. Mt. Horeb, Wis.) and four non-naïve male cynomolgus monkeys [cynos (macaca fasicularis); approximately 7 to 8 years of age; Charles River Laboratories, Inc., Houston, Tex.] were used in this study. Prior to experimental initiation for the present study, the attending veterinarian certified that the animals were healthy and free from disease and parasites.
For both species, each animal was part of each experimental group, with a 7-day interval between treatments to allow for washout of the dosing formulation and its effects. Dosing formulations of SR13668 were administered by oral gavage (intragastric) or intravenous (i.v.) injection as a single dose or once daily for seven consecutive days. Oral to doses were administered at a dosing volume of 5 mL/kg of body weight, while intravenous doses were administered at a dosing volume of 0.5 mL/kg of body weight. Dogs were dosed with 93.6 mg/m^2 SR13668 intravenously in DMSO:PEG300 15:85 (v/v) or orally in Solutol® vehicle (two groups, fed and after an overnight fast). Monkeys were dosed with 84.2 mg/m^2 SR13668 intravenously in DMSO:PEG300 15:85 (v/v) or orally (336.7 mg/m^2 SR13668 for the oral high dose group) in PEG400:Labrasol® 1:1 (v/v) or Solutol® vehicles. Vehicle control groups were used to assess the tolerability of the vehicle and for clinical pathology evaluations.
Blood samples were collected from each animal at 10 time points (0, 0.25, 0.5, 1, 2, 4, 6, 8, 12 and 24 hours post-dose) during the first and last 24-hour segment of each dosing regimen. For single intravenous dose experiments, samples were collected during the 24-hour post-dose period only. Samples were transferred to Vacutainer tubes containing ethylenediaminetetraacetic acid (EDTA; Fisher Scientific, Pittsburgh, Pa.). The tubes were inverted several times to mix and then placed on ice until storage or centrifugation for plasma preparation. After centrifugation, the plasma was transferred into storage tubes (0.5 mL), which were placed on dry ice and then stored frozen (approximately −70° C.).
Levels of SR13668 in plasma and blood were measured using a tandem mass to spectrometer (API 3000; Applied Biosystems/MDS Sciex, Foster City, Calif.) equipped with a high performance liquid chromatograph (Agilent 1200; Agilent Technologies, Wilmington, Del.). For SR13668 determination, a 100 μL blood or plasma aliquot was mixed with 1 mL of acetonitrile (ACN; Sigma-Aldrich, St. Louis, Mo.). After vortex-mixing for one minute, the sample was centrifuged at 4° C. and 7000 RPM for 10 minutes to remove precipitated proteins, and the supernatant was transferred to a clean tube and dried under nitrogen flow at room temperature (approximately 25° C.). After the evaporation was completed, the residue was reconstituted in 500 μL of ACN/water (v/v 70:30), and vortex-mixed and centrifuged again. An aliquot of the resulting supernatant was transferred to an autosampler tube for instrumental analysis.
A freshly prepared SR13668 standard curve was analyzed along with samples on each day of analysis. The chromatographic column was a Luna 3μ C18(2) 110 Å 30×2.0 mm (Phenomenex, Torrance, Calif.). The column temperature was maintained at 25° C., and a flow rate of 0.30 mL/min was used. The mobile phase consisted of MPA: formic acid in water (0.05%, v/v) and MPB: formic acid in ACN (0.05%, v/v). The mobile phase gradient was as follows: after injection, initial conditions with MPA at 40% were held for 0.01 min, decreased to 5% and held constant for 3 min, returning to initial conditions for another 3 min of re-equilibration time. Retention time of SR13668 was approximately 2.4 min. Total run time was 6 min. A turbo ion spray interface was used as the ion source operating in negative ion mode. Acquisition was performed in multiple reaction monitoring mode using ions 429.15 (Q1) and 414.12 (Q3) Dalton. […]

[1] = dogs, whole blood, 93.6 mg/m^2 (4.68 mg/kg) iv single dose, DMSO:PEG300 15:85 v/v, fed
[2] = male, beagle, dog, plasma, iv, 4.68 mg/kg, dogs, plasma, 93.6 mg/m^2 (4.68 mg/kg) i.v. single dose, DMSO:PEG300 15:85 v/v, fed
[3] = male, beagle, dog, plasma, po, 4.68 mg/kg, dogs, 93.6 mg/m^2 (4.68 mg/kg) oral gavage, Solutol, seventh daily dose, fasted
[4] = male, beagle, dog, plasma, po, 4.68 mg/kg, dogs, 93.6 mg/m^2 (4.68 mg/kg) oral gavage, Solutol, seventh daily dose, fed
[5] = male, beagle, dog, whole blood, iv, 4.68 mg/kg, dogs, whole blood, 93.6 mg/m^2 (4.68 mg/kg) iv single dose, DMSO:PEG300 15:85 v/v, fed
[6] = male, beagle, dog, whole blood, po, 4.68 mg/kg, dogs, 93.6 mg/m^2 (4.68 mg/kg) oral gavage, Solutol, seventh daily dose, fasted
[7] = male, beagle, dog, whole blood, po, 4.68 mg/kg, dogs, 93.6 mg/m^2 (4.68 mg/kg) oral gavage, Solutol, seventh daily dose, fed

For `CCOC(=O)c1ccc2[nH]c3c(OC)c4[nH]c5ccc(C(=O)OCC)cc5c4cc3c2c1` [SR13668, 2,10-dicarbethoxy-6-methoxy-5,7-dihydro-indolo-(2,3-b)carbazole], the CL (dogs, blood clearance, 93.6 mg/m^2 (4.68 mg/kg) oral gavage, Solutol, fasted) was 1.8 L/h/kg, the CL (dogs, blood clearance, 93.6 mg/m^2 (4.68 mg/kg) oral gavage, Solutol, fed) was 1.54 L/h/kg and the “Fabs F/(1-ER)” value (dogs, 93.6 mg/m^2 (4.68 mg/kg) oral gavage, Solutol, fasted) was 16.5%. The “Fabs F/(1-ER)” value (dogs, 93.6 mg/m^2 (4.68 mg/kg) oral gavage, Solutol, fed) was 20.0%, the “F0-∞” value (dogs, plasma, 93.6 mg/m^2 (4.68 mg/kg) i.v. single dose, DMSO:PEG300 15:85 v/v, fed) was 100% and the “F0-∞” value (dogs, plasma, 93.6 mg/m^2 (4.68 mg/kg) oral gavage, Solutol, seventh daily dose, fasted) was 13.3 ± 4.0%. For the same molecule, the CL/F [1] was 0.244 ± 0.034^a,h L/hr/kg, the “F0-∞” value [1] was 100% and the “F0-∞” value (dogs, whole blood, 93.6 mg/m^2 (4.68 mg/kg) oral gavage, Solutol, seventh daily dose, fasted) was 14.2 ± 4.5% and 14.2%. For the same molecule, the “F0-∞” value (dogs, whole blood, 93.6 mg/m^2 (4.68 mg/kg) oral gavage, Solutol, seventh daily dose, fed) was 17.2 ± 4.3^h,i % and 17.2%, the “ER CLiv/Q” value (dogs, iv blood clearance over hepatic blood flow 30.9 mL/min/kg) was 0.14 and the “effect of fed or fasted condition on bioavailability” value (dogs, oral gavage, Solutol) was “did not have an effect”. It also gave a bioavailability (male, dog, plasma, read-out: plasma oral bioavailability, range) of 0.7 to 14.6%, a bioavailability (male, dog, whole blood, read-out: blood oral bioavailability, range) of 1.1 to 17.2% and an AUC(0-inf) [2] of 8.39 ± 1.19 µg·h/mL. The Cmax [2] was 2.36 ± 0.573 µg/mL, the MRT [2] was 6.3 ± 0.6 h and the Tmax [2] was 0.25 h. It also gave a half-life [2] of 5 ± 0.2 h, a CL/F (male, beagle, dog, plasma, po, 4.68 mg/kg, dogs, plasma, 93.6 mg/m^2 (4.68 mg/kg) oral gavage, Solutol, seventh daily dose, fasted, read-out: CL/F (converted)) of 4.58 L/h/kg and a Vd/F (male, beagle, dog, plasma, po, 4.68 mg/kg, dogs, plasma, 93.6 mg/m^2 (4.68 mg/kg) oral gavage, Solutol, seventh daily dose, fasted) of 64 ± 24 L/kg. The CL/F (male, beagle, dog, plasma, po, 4.68 mg/kg, dogs, plasma, 93.6 mg/m^2 (4.68 mg/kg) oral gavage, Solutol, seventh daily dose, fed, read-out: CL/F (converted)) was 4.18 L/h/kg, the Vd/F (male, beagle, dog, plasma, po, 4.68 mg/kg, dogs, plasma, 93.6 mg/m^2 (4.68 mg/kg) oral gavage, Solutol, seventh daily dose, fed) was 32.4 ± 9.6 L/kg and the AUC(0-inf) [3] was 1.1 ± 0.339 µg·h/mL. For the same molecule, the Cmax [3] was 0.113 ± 0.058 µg/mL, the MRT [3] was 12.8 ± 4.2 h and the Tmax [3] was 2.8 ± 1.5 h. The half-life [3] was 9.7 ± 2.4 h, the AUC(0-inf) [4] was 1.24 ± 0.414 µg·h/mL and the Cmax [4] was 0.207 ± 0.048 µg/mL. The MRT [4] was 7.1 ± 1.1 h, the Tmax [4] was 1.8 ± 0.5 h and the half-life [4] was 5.6 ± 1.4 h. For the same molecule, the AUC(0-inf) [5] was 19.5 ± 3.16 µg·h/mL, the Cmax [5] was 5.22 ± 0.742 µg/mL and the MRT [5] was 6.7 ± 0.6 h. It also gave a Tmax [5] of 0.25 h, a half-life [5] of 5 ± 0.1 h and a CL/F (male, beagle, dog, whole blood, po, 4.68 mg/kg, dogs, whole blood, 93.6 mg/m^2 (4.68 mg/kg) oral gavage, Solutol, seventh daily dose, fasted, read-out: CL/F (converted)) of 1.8 L/h/kg. It also gave a Vd/F (male, beagle, dog, whole blood, po, 4.68 mg/kg, dogs, whole blood, 93.6 mg/m^2 (4.68 mg/kg) oral gavage, Solutol, seventh daily dose, fasted) of 18.6 ± 7.5 L/kg, a CL/F (male, beagle, dog, whole blood, po, 4.68 mg/kg, dogs, whole blood, 93.6 mg/m^2 (4.68 mg/kg) oral gavage, Solutol, seventh daily dose, fed, read-out: CL/F (converted)) of 1.54 L/h/kg and a Vd/F (male, beagle, dog, whole blood, po, 4.68 mg/kg, dogs, whole blood, 93.6 mg/m^2 (4.68 mg/kg) oral gavage, Solutol, seventh daily dose, fed) of 12.8 ± 4.8 L/kg. It also gave an AUC(0-inf) [6] of 2.68 ± 0.577 µg·h/mL, a Cmax [6] of 0.277 ± 0.087 µg/mL and an MRT [6] of 10.9 ± 3.1 h. It also gave a Tmax [6] of 2.8 ± 1.5 h, a half-life [6] of 7 ± 1.8 h and an AUC(0-inf) [7] of 3.41 ± 1.29 µg·h/mL. For the same molecule, the Cmax [7] was 0.575 ± 0.152 µg/mL, the MRT [7] was 7.2 ± 0.9 h and the Tmax [7] was 1.8 ± 0.5 h. It also gave a half-life [7] of 5.9 ± 1.5 h and a clearance (male, beagle, dog, whole blood, dogs, blood clearance, 93.6 mg/m^2 (4.68 mg/kg) iv, DMSO:PEG300 15:85 v/v, fed) of 0.244 L/h/kg.
